Results: publication PMC12884720, “Gabpα‐Pparγ Complex Determines Glycolytic Capacity and Lactic Acid Homeostasis in Brown Fat” (Advanced Science, 2025)
Residues, ends and D or L forms follow the SMILES beside them. *: point of attachment. FITC = O=C1OC2(c3ccc(O)cc3Oc3cc(O)ccc32)c2ccc(NC(=S)*)cc21

What was measured:
[1] = tested on: differentiated iBAT‐SVF cells; assay: Lactate levels in differentiated iBAT-SVF cells; assay type: cell-based, C57BL/6 mice; settings: GPCBi 5 µM
Method: Interscapular BAT‐SVF cells were obtained from eight‐week‐old male C57BL/6 mice. Briefly, BAT was excised, washed in PBS, minced, and digested at 37 °C for 40 min in Hanks solution containing type II collagenase (Sigma, Cat# C‐6885) and 4% bovine serum albumin (BSA). The tissue homogenates were filtered through a 70 µm cell strainer and centrifuged at 1000 rpm for 5 min. The cell pellet was resuspended in DMEM supplemented with 10% FBS (Sigma–Aldrich) and 1% penicillin/streptomycin (P/S) at 37 °C with 5% CO2. The next day, BAT‐SVF cells were immortalized with the SV40 large T antigen according to a published protocol.^[ [32] ^] For iBAT‐SVF cell differentiation, confluent SVF cells were induced to differentiate with medium containing 0.5 mM isobutylmethylxanthine (Sigma, Cat# I‐5879), 125 µM indomethacin (Sigma, Cat# I‐7378), 2 µg mL^−1 dexamethasone (Sigma, Cat# D‐1756), 5 µg mL^−1 insulin (Solarbio, Cat# I‐8040), 1 nM triiodo‐L‐thyronine (Sigma, Cat# T‐2877), and 1 µM rosiglitazone (Cayman, Cat# 71740‐100). After 48 h, the induction medium was replaced with a maintenance cocktail (5 µg mL^−1 insulin, 1 nM triiodo‐L‐thyronine, and 1 µM rosiglitazone) until 6 to 8 days after the induction of differentiation.
Brown fat was homogenized with lysis buffer, ultrasonographically treated on ice at 300 W (on for 3 s, off for 7 s) for 2 min, and then centrifuged at 4 °C at 12 000 × g for 10 min. […] All protocols were followed in accordance with the manufacturer's guidelines.

BAT from wild‐type mice = assay: H&E staining and Ucp1 immunostaining of BAT; assay type: in vivo, wild‐type C57BL/6J mice; settings: GPCBi 5.5 mg kg^−1 orthotopically into BAT
Method: (§1) The mouse experiments were approved by the Institutional Animal Care and Use Committee of the Institute of Model Animals of Tongji Hospital, Huazhong University of Science and Technology, and were performed in compliance with all relevant ethical regulations (approval number: TJH‐202110044). Unless otherwise noted, the mice were housed in a pathogen‐free and climate‐controlled environment (22–25 °C, 40‐60% humidity) and were given free access to food and water on a 12 h light/dark cycle. Wild‐type C57BL/6J mice were obtained from Beijing Huafukang Bioscience Co., Ltd. (Beijing, China). Gabpa ^flox/flox , Adipoq^Cre , and Ucp1^Cre mice were purchased from Cyagen Biosciences, Inc. (Guangzhou, China). For GPCBi treatment, wild‐type mice were orthotopically injected GPCBi (FITC‐[…]; 5.5 mg kg^−1) or scramble peptide (FITC‐[…]; 5.5 mg kg^−1) into the BAT at room temperature for one week. […] For cold exposure, the mice were caged individually and exposed to a temperature of 10 or 4 °C. The mice were euthanized by CO2 inhalation. For studies with specific diets, five‐week‐old male Gabpα ^Adipo KI mice and their respective littermate control mice were fed a HFD (D12492, Research Diets; 60 kcal% fat, 20 kcal% carbohydrates, and 20 kcal% protein; Medicience Ltd., Jiangsu, China) at ambient temperature. The food was changed every week. Body weight was measured every week, and tissue weights were measured at the time of euthanasia.
For haematoxylin and eosin (H&E) staining, adipose tissues and the liver were fixed in 4% paraformaldehyde overnight at 4 °C and then dehydrated in 70% ethanol. The tissues were subsequently embedded in paraffin, sectioned at a thickness of 5 µm, and stained with H&E or immunostained with a Ucp1 antibody (Abcam, UK, Cat# ab234430, 1:500 dilution) following the standard protocol. For Oil Red O staining, frozen liver sections were stained with Oil Red O solution for 10 min and then counterstained with haematoxylin for 20 s. Images of the tissue samples were captured via an Olympus BX53 Orthomicroscope. […]

Gabpα‐Pparγ complex = assay: SPR competitive binding assay, GPCBi on Gabpα and Pparγ interaction; settings: equal concentration of Gabpα and different concentrations of GPCBi over immobilized Pparγ (Figure 4b)
Method: SPR analysis was performed using a Biacore T200 system (Cytiva) equipped with a Series S Sensor Chip CM5. Briefly, the ligand Pparγ protein was immobilized to the CM5 Chip via covalent bonds to the amino acid residues in immobilization buffer. Subsequently, different concentrations of Gabpα were diluted in the analyte buffer and were injected into the flowing channel to allow interaction between Pparγ and Gabpα. For a competitive binding assay, an equal concentration of Gabpα and different concentrations of GPCBi were injected into the flowing channel to examine the effect of the interaction between Pparγ and Gabpα. The interacting phase included 120 s of the association phase and 200 s of the dissociation phase. The data were analyzed in a Biacore T200 Evaluation Software (Cytiva).

Gabpα–Pparγ interaction = assay: Co-IP of His-Gabpα and Myc-Pparγ with peptide GPCBi; assay type: binding; settings: HEK293T cells cotransfected with His‐Gabpα and Myc‐Pparγ, GPCBi 30 µM, 48 h, anti‐His IP (Figure S4c)
wild‐type mice = assay: Cold challenge: rectal core body temperature and survival; assay type: in vivo, wild‐type C57BL/6J mice; settings: 4 °C
Method: as §1, with “For studies with specific diets, five‐week‐old male Gabpα ^Adipo KI mice and their respective littermate control mice were fed a HFD (D12492, Research Diets; 60 kcal% fat, 20 kcal% carbohydrates, and 20 kcal% protein; Medicience Ltd., Jiangsu, China) at ambient temperature. The food was changed every week.” left out

Eno1 promoter = assay: Luciferase reporter assay, Eno1-Luc activated by Gabpα and Pparγ/Rxrα; assay type: cell-based, human; settings: HEK293T cells, GPCBi 3 µM, n = 3 (Figure 4g)
Method: HEK293T cells were transfected with 100 ng of Pparγ and 100 ng of Rxrα or empty vector together with 100 ng of Gabpα plasmid or the C‐terminal truncation mutants and 200 ng of Eno1 luciferase reporter plasmid in 24‐well plates via Lipofectamine reagent (Yeasen, Shanghai, China, Cat# 40802ES03). For the experiments with the peptides GPCBi or T0070907, the additional peptides GPCBi (3 µM) or T0070907 (10 µM) were added to the HEK293T cells one day after the plasmid complex was transfected. After 48 h of transfection, luciferase activity was measured via the Dual‐Luciferase Reporter Assay System (Vazyme Biotech., Nanjing, China; Cat# DL101‐01). Firefly luciferase reporter gene measurements were normalized to Renilla luciferase activity.

CC[C@H](C)[C@H](NC(=O)[C@H](CCCNC(=N)N)NC(=O)[C@H](CS)NC(=O)[C@H](CC(N)=O)NC(=O)[C@H](CC(C)C)NC(=O)[C@H](CC(=O)O)NC(=O)[C@H](CS)NC(=O)[C@H](CCCNC(=N)N)NC(=O)[C@H](CC(=O)O)NC(=O)[C@H](Cc1ccc(O)cc1)NC(=O)[C@@H](NC(=O)[C@H](CC(C)C)NC(=O)[C@H](CCCCN)NC(=O)[C@H](CC(C)C)NC(=O)[C@H](CCCNC(=N)N)NC(=O)[C@@H](NC(=O)[C@@H](NC(=O)[C@H](CCCNC(=N)N)NC(=O)[C@H](CCCNC(=N)N)NC(=O)[C@H](CCCNC(=N)N)NC(=O)[C@H](CCCNC(=N)N)NC(=O)[C@H](CCCNC(=N)N)NC(=O)[C@H](CCC(N)=O)NC(=O)[C@H](CCCNC(=N)N)NC(=O)[C@H](CCCNC(=N)N)NC(=O)[C@H](CCCCN)NC(=O)[C@H](CCCCN)NC(=O)[C@H](CCCNC(=N)N)NC(=O)CNC(=O)[C@H](Cc1ccc(O)cc1)NC(=S)Nc1ccc2c(c1)C(=O)OC21c2ccc(O)cc2Oc2cc(O)ccc21)[C@@H](C)O)[C@@H](C)CC)[C@@H](C)CC)C(=O)N[C@@H](Cc1c[nH]cn1)C(=O)N[C@@H](CCCCN)C(=O)N[C@@H](CCCCN)C(=O)N[C@@H](CO)C(=O)N[C@@H](CCCNC(=N)N)C(=O)N[C@@H](CC(N)=O)C(=O)N[C@@H](CCCCN)C(=O)O [GPCBi] ({FITC}-YGRKKRRQRRRRRTIRLKLIYDRCDLNCRIHKKSRNK-OH; N-terminus and C-terminus assumed)
intracellular lactate levels in brown adipocytes ([1]; first 2 days of adipogenic differentiation (Figure 5l)): decreased
lactate level in GPCBi‐treated brown adipocytes ([1]; first 2 days of adipogenic differentiation, versus scramble peptide, without Enoblock (Figure 5o)): reduced
lipid accumulation in BAT (BAT from wild‐type mice; H&E, 7 days (Figure 4i,j)): increased lipid accumulation
Ucp1 abundance in BAT (BAT from wild‐type mice; Ucp1 immunostaining, 7 days (Figure 4i,k)): decreased Ucp1 abundance
effect on Gabpα affinity toward Pparγ (Gabpα‐Pparγ complex): dose‐dependently attenuated this interaction
binding capacity between Gabpα and Pparγ (Gabpα–Pparγ interaction): decreased
maintenance of core body temperature under acute cold stress (wild‐type mice; control n = 7, GPCBi n = 8 (Figure 4q)): struggled to maintain their core body temperatures
mortality under acute cold stress (wild‐type mice; control n = 7, GPCBi n = 8 (Figure 4r)): increased mortality
Gabpα‐Pparγ complex‐mediated activation of the Eno1 promoter (Eno1 promoter): suppressed
